Data on five compounds can be found in patent publication US11518746B2, “Nitrogen ring linked deoxyuridine triphosphatase inhibitors” (CV6 Therapeutics (NI) Limited, priority 2016, dated 2022).

Structures are written as SMILES.

For experiment [1], the system named is colorectal (HCT116 and SW620) cell line models. Kind of experiment: MTS growth inhibition assay. In kind it is cell-based. The conditions noted are these: increasing concentrations of 5-FU between 0 and 100 μmol/L. Here is the method: The Cell Titer AQueous MTS assay (Promega) is carried out according to the manufacturers guidelines. […] The combination effect is determined by the combination index (CI) method utilizing Calcusyn software (Biosoft, Ferguson, Mo.). Fraction affected (FA) is calculated from the percent growth inhibition: FA=[…]. CI values <1, synergism; 1-1.2, additive and >1.2, antagonism.
Test compounds are evaluated for their antitumor activity in colorectal cancer cells using the MTS growth inhibition assay. HCT116 and SW620 cells are exposed to increasing concentrations of each agent for 72 hours and growth inhibition is directly compared to vehicle-treated controls. The NSCLC cell lines A549 and H1299 are exposed to increasing concentrations of each agent for 72 hours and growth inhibition is directly compared to vehicle-treated controls.
MTS growth inhibition assays are performed to evaluate the effectiveness of the test compounds alone and in combination with the fluoropyrimidine thymidylate synthase (TS) inhibitor 5-fluorouracil (5-FU) at inhibiting the growth of colorectal (HCT116 and SW620) cell line models. […] Simultaneous treatment with increasing concentrations of 5-FU and a test compound at fixed concentrations of 25 μmol/L is determined.
For orientation: Tetrazolium dyes change colour on reduction, which living cells bring about.

Experiment [2] deals with T1, Recombinant human deoxyuridine nucleotidohydrolase (dUTPase) (Homo sapiens, UniProt P33316).
T1 construct: made in house
T1 sequence (P33316 1-164 isoform P33316-2): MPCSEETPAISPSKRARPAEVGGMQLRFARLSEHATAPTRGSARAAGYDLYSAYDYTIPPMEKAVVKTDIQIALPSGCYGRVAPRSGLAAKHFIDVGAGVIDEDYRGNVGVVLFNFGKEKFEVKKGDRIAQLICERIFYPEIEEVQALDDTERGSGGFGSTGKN
Kind of experiment: dUTPase inhibition, fluorescence-based DNA polymerase assay. The experiment is classed as biochemical. The conditions noted are these: for % relative inhibition vs. positive control: mean over three concentrations, typically 100, 50 and 25 μmol/L, compared to in-run positive control. From the text: Recombinant human deoxyuridine nucleotidohydrolase (dUTPase) is expressed and purified as described in Ladner R D, Carr S A, Huddleston M J, McNulty D E, Caradonna S J. J Biol Chem. 1996 Mar. 29; 271(13):7752-7. All drugs stocks are aliquoted and diluted as appropriate prior to use. The oligonucleotide primer, templates and fluorophore- and quencher-labeled detection probes are synthesized by Integrated DNA Technologies (Coralville, Iowa), subjected to polyacrylamide gel electrophoresis purification and reconstituted in Omnipur sterile nuclease-free water (EMD Chemicals USA, Gibbstown N.J.) at a stock concentration of 100 μmol/L. The two non-emissive (dark) quenching molecules incorporated into the detection probes include the Iowa black fluorescein quencher (IBFQ; absorption max 531 nm) and ZEN (non-abbreviation; absorption max 532 nm). The fluorescent label utilized is 6-FAM (5′-carboxyfluorescein; excitation max.=494 nm, emission max.=520 nm). Probes are further diluted to a working stock of 10 μmol/L and aliquoted to avoid repeated freeze/thaw cycles. AmpliTaq Gold DNA Polymerase, GeneAmp 10×PCR Buffer 2, MgCl2 and MicroAmp Optical 96-well Reaction Plates are purchased from Applied Biosystems (Carlsbad, Calif.). dNTPs are purchased individually at stock concentrations of 100 mmol/L from New England Biolabs at HPLC-certified >99% purity (Ipswich, Mass.).
Reaction mixtures contained primer, probe and template at an equimolar final concentration of 0.4 μmol/L. Magnesium chloride (MgCl2) is included at a final concentration of 2 mmol/L. Non-limiting dNTPs are included in the reaction mix in excess at a final concentration of 100 μmol/L (dUTP/dTTP is excluded). AmpliTaq Gold DNA polymerase is added at 0.875 U/reaction, 2.5 μl of 10×PCR buffer 2 added and nuclease-free ddH2O added to a final reaction volume of 25 μl. […] Thermal profiling and fluorescence detection is performed using a customized thermal program on board a Roche Lightcycler LC480 Instrument II. […] Raw fluorescence spectra for 6-FAM is measured at specified time intervals to follow assay progression on board a Roche LightCycler 480 Software Version 1.5 and exported and analyzed in Microsoft Excel (Microsoft, Redmond Wash.) and Prism (GraphPad Software, La Jolla Calif.). Fluorescence values for blank reactions (limiting dNTP omitted) are subtracted to give normalized fluorescence units (NFU) to account for background fluorescence.
Test compounds are screened in a fluorescence-based assay. […] This displacement effectively disrupts the Förster resonance energy transfer (FRET) and the resulting fluorescence detected upon excitation is directly proportional to the amount of the dUTP available in the assay for incorporation. […]

The subject of experiment [3] is colorectal (HCT116), breast (MCF-7) and non-small cell lung (H1299, A549, H358 and H460) cell line models. In words: Colony forming assay. In kind it is cell-based. The conditions noted are these: increasing concentrations of FUdR between 0.5 and 2.5 μmol/L. Here is the method: Colony forming assay showing the ability of colon (SW620, HCT116), non-small cell lung (A549, H460, H1299 and H358) and breast (MCF7) cancer cells to survive and proliferate following transient 24 hour exposure to test compounds, FUdR and combinations are determined. Specifically, cells are seeded at densities between 50 and 100 cells/well in 24-well plates. Twenty-four hours later, cells are treated with increasing concentrations of a rtest compound, a fixed dose of FUdR and combinations of these. After 24 hours, drug is removed, cells are rinsed and allowed to outgrow for 10-14 days. At the conclusion of the outgrowth, cells are fixed in 60% ice cold methanol and stained with 0.1% crystal violet, scanned and counted. Data is presented as percentage of untreated controls (mean±SD). Fraction affected and combination indexes are calculated according to the method of Chou and Talalay where <1 is indicative of a synergistic drug interaction.
Colony forming assays are performed to evaluate the effectiveness of test compounds alone and in combination with the fluoropyrimidine thymidylate synthase (TS) inhibitor fluorodeoxyuridine (FUdR) at reducing cancer cell viability in colorectal (HCT116), breast (MCF-7) and non-small cell lung (H1299, A549, H358 and H460) cell line models. […]

Turning to `O=c1[nH]cc(F)c(=O)[nH]1` [Example 5-FU, 5-fluorouracil], the growth inhibition entry in experiment [1] is given as “dose-dependent increases in growth inhibition”.
The IC50 is the concentration that gives 50% inhibition. Regarding `O=C1CN(CCCC(=O)N2CCC[C@H]2C(O)(c2ccccc2)c2ccccc2)C(=O)N1` [Example 79, (5)-1-(4-(2-(hydroxydiphenylmethyl)pyrrolidin-1-yl)-4-oxobutyl)imidazolidine-2,4-dione], in experiment [2], the IC50 is 1 µM and the “% relative inhibition vs. positive control” value was 75%.
As to `COc1ccc(NCCCS(=O)(=O)N2CCCC2C(C)c2ccc(F)c(OCC3CC3)c2)c(=O)[nH]1` (stereo not drawn) [Example 80, 3-((3-((2-(1-(3-(cyclopropylmethoxy)-4-fluorophenyl)ethyl)pyrrolidin-1-yl)sulfonyl)propyl)amino)-6-methoxypyridin-2(1H)-one], the “% relative inhibition vs. positive control” value in experiment [2] worked out at 22%.
The same measure, in the same setting: for `CC(c1ccc(F)c(OCC2CC2)c1)C1CCCN1S(=O)(=O)CCCNC1CCC(=O)NC1=O` (stereo not drawn) [Example 82, 3-((3-((2-(1-(3-(cyclopropylmethoxy)-4-fluorophenyl)ethyl)pyrrolidin-1-yl)sulfonyl)propyl)amino)piperidine-2,6-dione] the value was 13%.
In the case of `O=c1[nH]c(=O)n([C@H]2C[C@H](O)[C@@H](CO)O2)cc1F` [FUdR, fluorodeoxyuridine], the colonies formed entry in experiment [3] is “dose-dependent decreases in colonies formed”.
